{
  "source": "PubChem BioAssay AID720495",
  "about": "(Broad Institute, 2013)",
  "note": "Results filed as inconclusive are left out. The source made the active and inactive calls. No rule for the calls is given here.",
  "data": [
    {"target": "Protein AF-9 (Homo sapiens) (UniProt P42568)", "sequence (P42568 whole entry, looked up)": "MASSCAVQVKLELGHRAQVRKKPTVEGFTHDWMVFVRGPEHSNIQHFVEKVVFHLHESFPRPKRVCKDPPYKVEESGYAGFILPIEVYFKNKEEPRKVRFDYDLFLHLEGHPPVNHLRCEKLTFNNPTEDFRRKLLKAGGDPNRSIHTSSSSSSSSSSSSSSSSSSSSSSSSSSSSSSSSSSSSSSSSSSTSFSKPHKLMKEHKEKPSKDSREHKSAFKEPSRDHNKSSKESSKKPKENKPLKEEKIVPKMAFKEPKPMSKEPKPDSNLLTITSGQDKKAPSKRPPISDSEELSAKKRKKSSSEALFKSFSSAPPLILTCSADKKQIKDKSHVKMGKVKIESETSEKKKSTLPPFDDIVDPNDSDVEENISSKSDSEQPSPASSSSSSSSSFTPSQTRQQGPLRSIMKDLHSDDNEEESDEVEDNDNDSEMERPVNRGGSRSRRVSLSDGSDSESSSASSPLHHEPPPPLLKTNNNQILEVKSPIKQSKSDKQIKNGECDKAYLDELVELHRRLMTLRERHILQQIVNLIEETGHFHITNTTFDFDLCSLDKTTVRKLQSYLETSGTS", "assay": "inhibitors of AF4-AF9 protein interaction, dose response, biochemical, cherry-picked samples, plate reader (AID 720495)", "details": "biochemical protein-protein interaction assay, at 10 µM (top of the series)", "values": [
      {"molecule": "CN(C)c1ccc(NC(=O)Cn2cc3c(n2)CCCC3)cc1", "activity change, negative = inhibition": "inactive"},
      {"molecule": "CCOc1cc(/C=N/N=C(N)N)ccc1OCc1ccc(Cl)cc1", "activity change, negative = inhibition": "inactive"},
      {"molecule": "CCc1ccc(OCCNc2cc(N3CCNC(C)C3)ccc2[N+](=O)[O-])cc1", "note": "(configuration not stated)", "activity change, negative = inhibition": "inactive"},
      {"molecule": "Nc1ccc(O)c2c1C(=O)c1ccccc1C2=O", "activity change, negative = inhibition": "inactive"},
      {"molecule": "CN(C)c1ccc(C(CN)c2c[nH]c3ccccc23)cc1", "note": "(configuration not stated)", "activity change, negative = inhibition": "inactive"},
      {"molecule": "COc1ccc(OC)c(C2=NOC(C(=O)Nc3c(C)n(C)n(-c4ccccc4)c3=O)C2)c1", "note": "(configuration not stated)", "activity change, negative = inhibition": "inactive"},
      {"molecule": "O=C(NC1CCCCC1)C(c1cccs1)N(CCCN1CCOCC1)C(=O)c1ccc(-c2ccccc2)[nH]1", "note": "(configuration not stated)", "activity change, negative = inhibition": "inactive"},
      {"molecule": "CCOc1ccc(Nc2nc(NCC3CCCO3)c3ccccc3n2)cc1", "note": "(configuration not stated)", "activity change, negative = inhibition": "inactive"},
      {"molecule": "c1ccc2c(Nc3ccc4c(c3)OCCO4)c3c(nc2c1)CCCC3", "activity change, negative = inhibition": "inactive"},
      {"molecule": "CCN1CCN(c2ccc(N)c(C)c2)CC1", "activity change, negative = inhibition": "inactive"},
      {"molecule": "CN1CCN(CCCN2c3ccccc3Sc3ccc(C(F)(F)F)cc32)CC1", "activity change, negative = inhibition": "inactive"},
      {"molecule": "CCN1C(=O)/C(=C\\C(=O)c2cccs2)c2cc(Br)ccc21", "activity change, negative = inhibition": "inactive"},
      {"molecule": "CN(C)CCNc1nc2sc3c(c2c(=O)n1CCc1ccccc1)CCCCC3", "activity change, negative = inhibition": "inactive"},
      {"molecule": "CN=c1scc(-c2cccs2)n1/N=C/c1ccccc1O", "activity change, negative = inhibition": "inactive"},
      {"molecule": "c1ccc2c(c1)nc(Nc1ccc(N3CCCCC3)cc1)c1nncn12", "activity change, negative = inhibition": "inactive"},
      {"molecule": "CN1CCN(c2ccc(S(=O)(=O)N3CCCCC3)cc2NC(=O)/C=C/c2ccc(Cl)c([N+](=O)[O-])c2)CC1", "activity change, negative = inhibition": "inactive"},
      {"molecule": "C[C@@H]1CN([C@@H](C)CO)C(=O)Cc2cc(N(C)C)ccc2O[C@H]1CN(C)Cc1ccc(Cl)c(Cl)c1", "activity change, negative = inhibition": "inactive"},
      {"molecule": "Fc1ccc(-[n+]2nc(Nc3ccccc3)sc2-c2c(Cl)cccc2Cl)cc1", "activity change, negative = inhibition": "inactive"},
      {"molecule": "Nc1ccccc1Nc1cc(-c2ccccc2)nn1-c1cccc(Cl)c1", "activity change, negative = inhibition": "inactive"},
      {"molecule": "COc1cccc(OCC(O)CN2CCC(CN3C(=O)c4cccc5cccc(c45)C3=O)CC2)c1", "note": "(configuration not stated)", "activity change, negative = inhibition": "inactive"},
      {"molecule": "O=C(N/N=C/c1sc(N2CCCCC2)nc1-c1cccs1)C1CC1", "activity change, negative = inhibition": "inactive"},
      {"molecule": "COc1ccccc1N1CCN(/N=C\\c2sccc2C)CC1", "activity change, negative = inhibition": "inactive"},
      {"molecule": "C(=C\\c1ccc2ccccc2n1)/c1ccccc1", "activity change, negative = inhibition": "inactive"},
      {"molecule": "C#CCOCCOCCOCCNc1nc(N2CCN(C(=O)C([C@@H](C)O)n3cc([C@@H](N)CCCCN)nn3)CC2)nc(N2CCN(C(=O)C([C@@H](C)O)n3cc([C@@H](N)CCCCN)nn3)CC2)n1", "note": "(some centres not stated)", "activity change, negative = inhibition": "inactive"},
      {"molecule": "CC(=O)Nc1ccc(S(=O)(=O)NC2=C(N3CCN(Cc4ccccc4)CC3)C(=O)c3ccccc3C2=O)cc1", "activity change, negative = inhibition": "inactive"},
      {"molecule": "CCN(CC)CCSc1nc2ccccc2c(=S)n1-c1ccccc1", "activity change, negative = inhibition": "inactive"},
      {"molecule": "Cc1cccc(Nc2cc(C)c3c(O)cccc3n2)c1C", "activity change, negative = inhibition": "inactive"},
      {"molecule": "COc1ccccc1NC(c1cccnc1)c1ccc2cccnc2c1O", "note": "(configuration not stated)", "activity change, negative = inhibition": "inactive"},
      {"molecule": "CCN(CC)CCNc1cccc2sc3ccccc3c(=O)c12", "activity change, negative = inhibition": "inactive"},
      {"molecule": "COc1ccccc1N1CCN(/N=C/c2cccc(Cl)c2)CC1", "activity change, negative = inhibition": "inactive"},
      {"molecule": "COc1ccc(-c2ccc3[nH]c4c(c3c2)CCN2C[C@H]3[C@H](C)ON(C)[C@H]3C[C@@H]42)cc1", "activity change, negative = inhibition": "inactive"},
      {"molecule": "COc1ccc(CCNCc2cc(C)n(-c3ccc(OC)cc3)c2C)cc1", "activity change, negative = inhibition": "inactive"},
      {"molecule": "COc1ccccc1N1CCN(/N=C/C=C\\c2ccccc2[N+](=O)[O-])CC1", "activity change, negative = inhibition": "inactive"},
      {"molecule": "Fc1ccc(C(c2ccc(F)cc2)N2CCN(C/C=C/c3ccccc3)CC2)cc1", "activity change, negative = inhibition": "inactive"},
      {"molecule": "CNC(=S)N1N=C(c2ccc(Br)cc2)CC1c1ccc(N(C)C)cc1", "note": "(configuration not stated)", "activity change, negative = inhibition": "inactive"},
      {"molecule": "COc1ccc(CN2CC3(C2)CN(Cc2ccc4c(c2)OCO4)[C@H](CO)c2[nH]c4cc(OC)ccc4c23)cc1", "activity change, negative = inhibition": "inactive"},
      {"molecule": "CCc1ccc(-c2nc(CSCC(=O)N3CCN(c4ncccn4)CC3)c(C)o2)cc1", "activity change, negative = inhibition": "inactive"},
      {"molecule": "Cc1nn(-c2ccccc2)c(Cl)c1/C=C1\\C(=O)N(C)C(=S)N1C", "activity change, negative = inhibition": "inactive"},
      {"molecule": "CCOC(=O)/C(C#N)=C/c1c(N2CCN(Cc3ccc4c(c3)OCO4)CC2)nc2c(C)cccn2c1=O", "activity change, negative = inhibition": "inactive"},
      {"molecule": "Cc1oc(-c2cccc3ccccc23)nc1CN1CCN(c2ncnc3ccccc23)CC1", "activity change, negative = inhibition": "inactive"},
      {"molecule": "COc1ccc(N2CCN(c3cc(C)nc4ccc(OC)cc34)CC2)cc1", "activity change, negative = inhibition": "inactive"},
      {"molecule": "CCOc1ccc(Nc2ccc([N+](=O)[O-])c3nonc23)cc1", "activity change, negative = inhibition": "inactive"},
      {"molecule": "CN(C)c1ccc(NC(=S)NC23CC4CC(CC(C4)C2)C3)cc1", "activity change, negative = inhibition": "inactive"},
      {"molecule": "C[C@H](CO)N1C[C@H](C)[C@H](CN(C)Cc2ccc(C(F)(F)F)cc2)OCCCC[C@H](C)Oc2ccc(N(C)C)cc2C1=O", "activity change, negative = inhibition": "inactive"},
      {"molecule": "Cc1ccsc1/C=N/N1CCN(Cc2ccccc2)CC1", "activity change, negative = inhibition": "inactive"},
      {"molecule": "CN=c1scc(-c2ccc(OC)cc2)n1/N=C(\\C)c1cccnc1", "activity change, negative = inhibition": "inactive"},
      {"molecule": "C[C@@H]1CCCCO[C@H](CN(C)Cc2ccc(C(F)(F)F)cc2)[C@H](C)CN([C@H](C)CO)C(=O)c2cc(N(C)C)ccc2O1", "activity change, negative = inhibition": "inactive"}
    ]}
  ]
}
